Converted amounts (≈) assume the structure as drawn. The source made the active and inactive calls. The calls are words filed in the database; no cut-off is given here.
What was measured:
[1] = system: Staphylococcus aureus; assay: Bactericidal activity against Staphylococcus aureus ATCC 29213 assessed as altered cell morphology at 4 ug/ml after 60 mins by transmission electron microscopy; type: functional
[2] = system: Staphylococcus aureus; assay: Bactericidal activity against Staphylococcus aureus ATCC 29213 assessed as decrease in cell viability at 4 ug/ml within 120 mins; type: functional
[3] = system: Staphylococcus aureus; assay: Bactericidal activity against Staphylococcus aureus ATCC 29213 assessed as cell lysis at 4 ug/ml after 60 mins by transmission electron microscopy; type: functional, organism-based
[4] = system: Staphylococcus aureus; assay: Bactericidal activity against Staphylococcus aureus ATCC 29213 assessed as cell lysis at MIC after 120 mins; type: functional
[5] = system: Staphylococcus aureus; assay: microbe, parasite or virus in culture; conditions: ATCC 29213
Description: Antimicrobial activity against Staphylococcus aureus ATCC 29213

[6] = system: Staphylococcus aureus; assay: Bactericidal activity against Staphylococcus aureus ATCC 29213 assessed as calcein release at 4 ug/ml; type: functional, organism-based
[7] = system: Staphylococcus aureus; assay: Bactericidal activity against Staphylococcus aureus ATCC 29213 assessed as cell lysis at 4 ug/ml after 120 mins; type: functional, organism-based
[8] = system: Staphylococcus aureus; assay: Bactericidal activity against Staphylococcus aureus ATCC 29213 assessed as decrease in cell viability at MIC after 120 mins; type: functional
[9] = system: Staphylococcus aureus; assay: Bactericidal activity against Staphylococcus aureus ATCC 29213 assessed as membrane permeability at 4 ug/ml by ToPro3 dye based assay; type: functional, organism-based

In the case of CCCCCCCCCC(=O)N[C@@H](Cc1c[nH]c2ccccc12)C(=O)N[C@H](CC(N)=O)C(=O)N[C@@H](CC(=O)O)C(=O)N[C@@H]1C(=O)NCC(=O)N[C@@H](CCCN)C(=O)N[C@@H](CC(=O)O)C(=O)N[C@H](C)C(=O)N[C@@H](CC(=O)O)C(=O)NCC(=O)N[C@H](CO)C(=O)N[C@@H]([C@H](C)CC(=O)O)C(=O)N[C@@H](CC(=O)c2ccccc2N)C(=O)O[C@@H]1C, the Activity [1] is reported as >90%, the “fold change (FC)” value [2] is reported as >1000 and the Activity [3] is reported as “inactive”. The Activity [4] was 50%, the MIC [5] was 0.5 µg/mL (≈ 0.309 µM) and the Activity [6] was “inactive”. For the same compound, the Activity [7] was “inactive”, the “fold change (FC)” value [8] was 200 and the Activity [9] was “inactive”.

O=C(O)c1cn(C2CC2)c2cc(N3CCNCC3)c(F)cc2c1=O was tested, and the Activity [9] was “inactive”.

— ChEMBL document CHEMBL1255360, “Daptomycin exerts bactericidal activity without lysis of Staphylococcus aureus” (2008)
